{"source": "patent US20250243196A1", "about": "“CITRON KINASE INHIBITORS” (The Cleveland Clinic Foundation, priority 2021, published 2025)", "target": "Citron kinase (Homo sapiens (Human), UniProt O14578)", "sequence (O14578 whole entry)": "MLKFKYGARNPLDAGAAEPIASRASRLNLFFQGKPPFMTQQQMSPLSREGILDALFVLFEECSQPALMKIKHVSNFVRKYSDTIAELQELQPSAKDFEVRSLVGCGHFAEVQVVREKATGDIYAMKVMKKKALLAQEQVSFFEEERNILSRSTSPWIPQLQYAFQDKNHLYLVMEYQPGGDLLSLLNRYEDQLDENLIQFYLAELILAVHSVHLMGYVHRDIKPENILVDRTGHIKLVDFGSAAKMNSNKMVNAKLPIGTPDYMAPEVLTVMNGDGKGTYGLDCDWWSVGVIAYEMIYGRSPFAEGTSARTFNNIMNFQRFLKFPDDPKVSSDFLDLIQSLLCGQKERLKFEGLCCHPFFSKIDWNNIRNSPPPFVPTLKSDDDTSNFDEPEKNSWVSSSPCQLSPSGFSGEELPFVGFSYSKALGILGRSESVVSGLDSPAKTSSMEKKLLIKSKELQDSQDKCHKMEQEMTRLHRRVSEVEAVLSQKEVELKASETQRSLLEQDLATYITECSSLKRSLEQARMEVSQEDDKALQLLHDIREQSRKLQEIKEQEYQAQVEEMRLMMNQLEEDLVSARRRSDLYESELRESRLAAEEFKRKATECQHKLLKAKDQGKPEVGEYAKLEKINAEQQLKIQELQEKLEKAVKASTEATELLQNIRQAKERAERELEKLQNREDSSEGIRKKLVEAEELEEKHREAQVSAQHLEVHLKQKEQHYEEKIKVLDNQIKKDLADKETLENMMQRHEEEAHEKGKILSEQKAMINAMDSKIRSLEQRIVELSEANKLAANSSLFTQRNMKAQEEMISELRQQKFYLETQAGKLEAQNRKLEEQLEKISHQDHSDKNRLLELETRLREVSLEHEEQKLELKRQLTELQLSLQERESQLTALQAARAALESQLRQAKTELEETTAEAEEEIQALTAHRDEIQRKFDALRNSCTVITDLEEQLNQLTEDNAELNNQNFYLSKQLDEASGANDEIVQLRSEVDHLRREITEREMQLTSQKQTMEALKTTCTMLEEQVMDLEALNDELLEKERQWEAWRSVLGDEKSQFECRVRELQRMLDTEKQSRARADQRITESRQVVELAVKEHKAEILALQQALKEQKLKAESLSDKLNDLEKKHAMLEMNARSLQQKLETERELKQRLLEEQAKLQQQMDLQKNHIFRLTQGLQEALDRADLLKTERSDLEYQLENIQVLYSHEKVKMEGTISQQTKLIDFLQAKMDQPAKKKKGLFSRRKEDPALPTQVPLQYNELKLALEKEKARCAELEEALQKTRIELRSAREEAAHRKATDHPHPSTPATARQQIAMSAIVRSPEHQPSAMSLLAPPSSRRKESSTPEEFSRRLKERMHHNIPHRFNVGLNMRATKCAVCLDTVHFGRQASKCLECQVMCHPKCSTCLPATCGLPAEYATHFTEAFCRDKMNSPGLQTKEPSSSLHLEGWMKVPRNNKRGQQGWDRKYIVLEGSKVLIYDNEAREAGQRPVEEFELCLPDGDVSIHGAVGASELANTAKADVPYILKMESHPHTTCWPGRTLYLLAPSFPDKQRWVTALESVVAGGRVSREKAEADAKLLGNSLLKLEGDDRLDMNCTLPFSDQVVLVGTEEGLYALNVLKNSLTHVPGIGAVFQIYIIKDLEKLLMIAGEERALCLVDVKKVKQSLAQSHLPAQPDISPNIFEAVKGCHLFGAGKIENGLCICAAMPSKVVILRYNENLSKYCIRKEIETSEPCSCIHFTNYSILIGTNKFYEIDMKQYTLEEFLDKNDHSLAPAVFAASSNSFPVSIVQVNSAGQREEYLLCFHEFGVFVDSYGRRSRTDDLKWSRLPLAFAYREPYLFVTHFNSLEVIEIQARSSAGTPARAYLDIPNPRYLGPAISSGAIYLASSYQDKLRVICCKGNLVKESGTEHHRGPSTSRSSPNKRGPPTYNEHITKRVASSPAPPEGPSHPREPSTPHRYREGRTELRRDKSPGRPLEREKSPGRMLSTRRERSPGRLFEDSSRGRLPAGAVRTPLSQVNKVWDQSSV", "assay": "Radiometric citron kinase assay (Eurofins Cat #16-040KP)", "format": "biochemical", "conditions": "mean of at least two independent assays; read-out: Radiometric CitK IC50", "source_text": "In some embodiments, the step of contacting the sample with the compound comprises administering the compound to a subject (e.g., a subject) suffering from cancer. Methods of determining kinase inhibition are well known in the art. For example, kinase activity of an enzyme and the inhibitory capacity of a test compound can be determined by measuring enzyme specific phosphorylation of a substrate. Commercial assays and kits can be employed. For example, kinase inhibition can be determined using a radiometric binding assay, such as using KinaseProfiler™ technology (Eurofins Discovery). This assay method directly detects product formation without the use of modified substrates or coupling enzymes. Test compounds are incubated with kinase, substrate, required cofactors and radioisotope labeled ATP. Following incubation, unreacted radioactive ATP is removed by washing and incorporation of the radiolabeled phosphate into the kinase substrate is assayed to detect phosphoryltransferase activity, which is directly proportional to the amount of phosphorylated substrate. Inhibition of the kinase by a kinase inhibitor prevents phosphorylation of the substrate and thereby limits the incorporation of radiolabeled phosphate. Such an assay is compatible with a microwell assay format, allowing simultaneous determination of IC50 of multiple compounds.\nCompounds were screened for biochemical kinase activity (Eurofins Discovery, France) using one of two assays. […] All values in Table 1 are the mean of at least two independent assays.", "data": [{"smiles": "Cc1cc(-c2ccnc3[nH]ccc23)ccc1NC(=O)[C@H](N)Cc1ccccc1", "note": "[Compound F-132, (2R)-2-Amino-N-[2-methyl-4-(1H-pyrrolo[2,3-b]pyridin-4-yl)phenyl]-3-phenyl-propanamide]", "values": [{"measurement": "IC50", "value": 237, "unit": "nM"}]}, {"smiles": "N[C@H](Cc1ccccc1)C(=O)Nc1ccc(-c2ccnc3[nH]ccc23)cc1Cl", "note": "[Compound F-133, (2R)-2-Amino-N-[2-chloro-4-(1H-pyrrolo[2,3-b]pyridin-4-yl)phenyl]-3-phenyl-propanamide]", "values": [{"measurement": "IC50", "value": 557, "unit": "nM"}]}, {"smiles": "N[C@H](Cc1ccccc1)C(=O)Nc1cccc(-c2ccnc3[nH]ccc23)c1", "note": "[Compound F-134, (2R)-2-Amino-3-phenyl-N-[3-(1H-pyrrolo[2,3-b]pyridin-4-yl)phenyl]propanamide]", "values": [{"measurement": "IC50", "value": 64.1, "unit": "nM"}]}, {"smiles": "CCc1c[nH]c2nccc(-c3ccc(NC(=O)[C@H](N)Cc4ccccc4)cc3)c12", "note": "[Compound F-136, (2R)-2-Amino-N-[4-(3-ethyl-1H-pyrrolo[2,3-b]pyridin-4-yl)phenyl]-3-phenyl-propanamide]", "values": [{"measurement": "IC50", "value": 1260, "unit": "nM"}]}, {"smiles": "Cc1c(-c2ccnc3[nH]ccc23)ccc(NC(=O)[C@H](N)C(C)(C)C)c1F", "note": "[Compound F-137, (2R)-2-Amino-N-[2-fluoro-3-methyl-4-(1H-pyrrolo[2,3-b]pyridin-4-yl)phenyl]-3,3-dimethyl-butanamide]", "values": [{"measurement": "IC50", "value": 23.1, "unit": "nM"}]}, {"smiles": "Cc1cc(NC(=O)[C@H](N)C(C)(C)C)cc(C)c1-c1ccnc2[nH]ccc12", "note": "[Compound F-138, (2R)-2-Amino-N-[3,5-dimethyl-4-(1H-pyrrolo[2,3-b]pyridin-4-yl)phenyl]-3,3-dimethyl-butanamide]", "values": [{"measurement": "IC50", "value": 3000, "unit": "nM"}]}, {"smiles": "Cc1cc(NC(=O)[C@H](N)C(C)(C)O)ccc1-c1ccnc2[nH]c(C(F)F)cc12", "note": "[Compound F-139, (2R)-2-Amino-N-[4-[2-(difluoromethyl)-1H-pyrrolo[2,3-b]pyridin-4-yl]-3-methyl-phenyl]-3-hydroxy-3-methyl-butanamide]", "values": [{"measurement": "IC50", "value": 151, "unit": "nM"}]}, {"smiles": "CC(C)(C)C[C@@H](N)C(=O)Nc1ccc(-c2ccnc3[nH]c(C4CC4)cc23)cc1", "note": "[Compound F-141, (2R)-2-Amino-N-[4-(2-cyclopropyl-1H-pyrrolo[2,3-b]pyridin-4-yl)phenyl]-4,4-dimethyl-pentanamide]", "values": [{"measurement": "IC50", "value": 10, "unit": "nM"}]}, {"smiles": "Cc1cc(NC(=O)[C@H](N)CC(C)(C)C)ccc1-c1ccnc2[nH]c(C3CC3)cc12", "note": "[Compound F-142, (2R)-2-Amino-N-[4-(2-cyclopropyl-1H-pyrrolo[2,3-b]pyridin-4-yl)-3-methyl-phenyl]-4,4-dimethyl-pentanamide]", "values": [{"measurement": "IC50", "value": 18, "unit": "nM"}]}, {"smiles": "CC(C)(C)C[C@@H](N)C(=O)Nc1ccc(-c2ccnc3[nH]c(C(F)F)cc23)cc1", "note": "[Compound F-143, (2R)-2-Amino-N-[4-[2-(difluoromethyl)-1H-pyrrolo[2,3-b]pyridin-4-yl]phenyl]-4,4-dimethyl-pentanamide]", "values": [{"measurement": "IC50", "value": 4, "unit": "nM"}]}, {"smiles": "CC(C)(C)C[C@@H](N)C(=O)Nc1ccc(-c2ccnc3[nH]c(C(F)(F)F)cc23)cc1", "note": "[Compound F-144, (2R)-2-amino-4,4-dimethyl-N-[4-[2-(trifluoromethyl)-1H-pyrrolo[2,3-b]pyridin-4-yl]phenyl]pentanamide]", "values": [{"measurement": "IC50", "value": 22, "unit": "nM"}]}, {"smiles": "Cc1cc2c(-c3ccc(NC(=O)[C@H](N)CC(C)(C)C)cn3)ccnc2[nH]1", "note": "[Compound F-145, (2R)-2-Amino-4,4-dimethyl-N-(6-(2-methyl-1H-pyrrolo[2,3-b]pyridin-4-yl)pyridin-3-yl)pentanamide]", "values": [{"measurement": "IC50", "value": 26, "unit": "nM"}]}, {"smiles": "CC(C)(C)C[C@@H](N)C(=O)Nc1ccc(-c2ccnc3[nH]c(C(F)(F)F)cc23)cn1", "note": "[Compound F-146, (2R)-2-Amino-4,4-dimethyl-N-[5-[2-(trifluoromethyl)-1H-pyrrolo[2,3-b]pyridin-4-yl]-2-pyridyl]pentanamide]", "values": [{"measurement": "IC50", "value": 307, "unit": "nM"}]}, {"smiles": "Cc1c(-c2ccnc3[nH]c(C(F)(F)F)cc23)ccc(NC(=O)[C@H](N)CC(C)(C)C)c1F", "note": "[Compound F-147, (2R)-2-Amino-N-[2-fluoro-3-methyl-4-[2-(trifluoromethyl)-1H-pyrrolo[2,3-b]pyridin-4-yl]phenyl]-4,4-dimethyl-pentanamide]", "values": [{"measurement": "IC50", "value": 24, "unit": "nM"}]}, {"smiles": "COc1nc(-c2ccnc3[nH]c(C)cc23)ccc1NC(=O)[C@H](N)CC(C)(C)C", "note": "[Compound F-148, (2R)-2-Amino-N-[2-methoxy-6-(2-methyl-1H-pyrrolo[2,3-b]pyridin-4-yl)-3-pyridyl]-4,4-dimethyl-pentanamide]", "values": [{"measurement": "IC50", "value": 18, "unit": "nM"}]}, {"smiles": "COc1nc(-c2ccnc3[nH]c(C(F)(F)F)cc23)ccc1NC(=O)[C@H](N)CC(C)(C)C", "note": "[Compound F-149, (2R)-2-Amino-N-[2-methoxy-6-[2-(trifluoromethyl)-1H-pyrrolo[2,3-b]pyridin-4-yl]-3-pyridyl]-4,4-dimethyl-pentanamide]", "values": [{"measurement": "IC50", "value": 38, "unit": "nM"}]}, {"smiles": "COc1nc(-c2ccnc3[nH]c(C(F)F)cc23)ccc1NC(=O)[C@H](N)CC(C)(C)C", "note": "[Compound F-150, (2R)-2-Amino-N-[6-[2-(difluoromethyl)-1H-pyrrolo[2,3-b]pyridin-4-yl]-2-methoxy-3-pyridyl]-4,4-dimethyl-pentanamide]", "values": [{"measurement": "IC50", "value": 9, "unit": "nM"}]}, {"smiles": "Cc1cc2c(-c3ccc(NC(=O)[C@H](N)CC(C)(C)C)nc3C)ccnc2[nH]1", "note": "[Compound F-151, (2R)-2-Amino-4,4-dimethyl-N-[6-methyl-5-(2-methyl-1H-pyrrolo[2,3-b]pyridin-4-yl)-2-pyridyl]pentanamide]", "values": [{"measurement": "IC50", "value": 91, "unit": "nM"}]}, {"smiles": "Cc1nc(NC(=O)[C@H](N)CC(C)(C)C)ccc1-c1ccnc2[nH]c(C(F)F)cc12", "note": "[Compound F-152, (2R)-2-Amino-N-[5-[2-(difluoromethyl)-1H-pyrrolo[2,3-b]pyridin-4-yl]-6-methyl-2-pyridyl]-4,4-dimethyl-pentanamide]", "values": [{"measurement": "IC50", "value": 120, "unit": "nM"}]}, {"smiles": "COc1nc(NC(=O)[C@H](N)CC(C)(C)C)ccc1-c1ccnc2[nH]c(C)cc12", "note": "[Compound F-153, (2R)-2-Amino-N-[6-methoxy-5-(2-methyl-1H-pyrrolo[2,3-b]pyridin-4-yl)-2-pyridyl]-4,4-dimethyl-pentanamide]", "values": [{"measurement": "IC50", "value": 35, "unit": "nM"}]}, {"smiles": "COc1nc(NC(=O)[C@H](N)CC(C)(C)C)ccc1-c1ccnc2[nH]c(C(F)(F)F)cc12", "note": "[Compound F-154, (2R)-2-Amino-N-[6-methoxy-5-[2-(trifluoromethyl)-1H-pyrrolo[2,3-b]pyridin-4-yl]-2-pyridyl]-4,4-dimethyl-pentanamide]", "values": [{"measurement": "IC50", "value": 59, "unit": "nM"}]}, {"smiles": "COc1nc(NC(=O)[C@H](N)CC(C)C)ccc1-c1ccnc2[nH]c(C(F)(F)F)cc12", "note": "[Compound F-155, (2R)-2-Amino-N-[6-methoxy-5-[2-(trifluoromethyl)-1H-pyrrolo[2,3-b]pyridin-4-yl]-2-pyridyl]-4-methyl-pentanamide]", "values": [{"measurement": "IC50", "value": 113, "unit": "nM"}]}, {"smiles": "Cc1cc2c(-c3ccc(NC(=O)[C@H](N)CC(C)(C)C)c(F)c3C)ccnc2[nH]1", "note": "[Compound F-156, (2R)-2-Amino-N-[2-fluoro-3-methyl-4-(2-methyl-1H-pyrrolo[2,3-b]pyridin-4-yl)phenyl]-4,4-dimethyl-pentanamide]", "values": [{"measurement": "IC50", "value": 10, "unit": "nM"}]}, {"smiles": "COc1cccc(C[C@@H](N)C(=O)Nc2ccc(-c3ccnc4[nH]c(C)cc34)c(C)c2)c1", "note": "[Compound F-157, (2R)-2-Amino-3-(3-methoxyphenyl)-N-[3-methyl-4-(2-methyl-1H-pyrrolo[2,3-b]pyridin-4-yl)phenyl]propenamide]", "values": [{"measurement": "IC50", "value": 519, "unit": "nM"}]}, {"smiles": "Cc1cc2c(-c3ccc(NC(=O)[C@@H](N)CC(C)(C)C)cc3C)ccnc2[nH]1", "note": "[Compound F-158, (2S)-2-Amino-4,4-dimethyl-N-[3-methyl-4-(2-methyl-1H-pyrrolo[2,3-b]pyridin-4-yl)phenyl]pentanamide]", "values": [{"measurement": "IC50", "value": 126, "unit": "nM"}]}, {"smiles": "Cc1cc2c(-c3ccc(NC(=O)[C@@H](N)C(C)(C)O)cc3C)ccnc2[nH]1", "note": "[Compound F-159, (2S)-2-Amino-3-hydroxy-3-methyl-N-[3-methyl-4-(2-methyl-1H-pyrrolo[2,3-b]pyridin-4-yl)phenyl]butanamide]", "values": [{"measurement": "IC50", "value": 852, "unit": "nM"}]}, {"smiles": "Cc1cc2c(-c3ccc(NC(=O)C(N)C(O)C(C)(C)C)cc3C)ccnc2[nH]1", "note": "(centres unmarked) [Compound F-160, 2-Amino-3-hydroxy-4,4-dimethyl-N-[3-methyl-4-(2-methyl-1H-pyrrolo[2,3-b]pyridin-4-yl)phenyl]pentanamide]", "values": [{"measurement": "IC50", "value": 29, "unit": "nM"}]}, {"smiles": "COc1cc(NC(=O)[C@H](N)CC(C)(C)C)ccc1-c1ccnc2[nH]ccc12", "note": "[Compound F-166, (2R)-2-Amino-N-[3-methoxy-4-(1H-pyrrolo[2,3-b]pyridin-4-yl)phenyl]-4,4-dimethyl-Pentanamide]", "values": [{"measurement": "IC50", "value": 37, "unit": "nM"}]}, {"smiles": "COc1cc(NC(=O)[C@H](N)CC(C)(C)C)ccc1-c1ccnc2[nH]c(C)cc12", "note": "[Compound F-167, (2R)-2-Amino-N-[3-methoxy-4-(2-methyl-1H-pyrrolo[2,3-b]pyridin-4-yl)phenyl]-4,4-dimethyl-pentanamide]", "values": [{"measurement": "IC50", "value": 50, "unit": "nM"}]}, {"smiles": "COc1cc(NC(=O)[C@H](N)C(C)(C)O)ccc1-c1ccnc2[nH]c(C)cc12", "note": "[Compound F-168, (2R)-2-Amino-3-hydroxy-N-[3-methoxy-4-(2-methyl-1H-pyrrolo[2,3-b]pyridin-4-yl)phenyl]-3-methyl-butanamide]", "values": [{"measurement": "IC50", "value": 1530, "unit": "nM"}]}, {"smiles": "Cc1cc2c(-c3ccc(NC(=O)[C@H](N)CC(C)(C)C)cc3OC(F)F)ccnc2[nH]1", "note": "[Compound F-169, (2R)-2-Amino-N-[3-(difluoromethoxy)-4-(2-methyl-1H-pyrrolo[2,3-b]pyridin-4-yl)phenyl]-4,4-dimethyl-pentanamide]", "values": [{"measurement": "IC50", "value": 53, "unit": "nM"}]}, {"smiles": "Cc1cc2c(-c3ccc(NC(=O)[C@H](N)C(C)(C)O)cc3OC(F)F)ccnc2[nH]1", "note": "[Compound F-170, (2R)-2-Amino-N-[3-(difluoromethoxy)-4-(2-methyl-1H-pyrrolo[2,3-b]pyridin-4-yl)phenyl]-3-hydroxy-3-methyl-butanamide]", "values": [{"measurement": "IC50", "value": 315, "unit": "nM"}]}]}
